pKi: −log10 of the molar value.
Target: Adenosine receptor A2a (Rattus norvegicus, UniProt P30543)
Sequence (P30543 whole entry): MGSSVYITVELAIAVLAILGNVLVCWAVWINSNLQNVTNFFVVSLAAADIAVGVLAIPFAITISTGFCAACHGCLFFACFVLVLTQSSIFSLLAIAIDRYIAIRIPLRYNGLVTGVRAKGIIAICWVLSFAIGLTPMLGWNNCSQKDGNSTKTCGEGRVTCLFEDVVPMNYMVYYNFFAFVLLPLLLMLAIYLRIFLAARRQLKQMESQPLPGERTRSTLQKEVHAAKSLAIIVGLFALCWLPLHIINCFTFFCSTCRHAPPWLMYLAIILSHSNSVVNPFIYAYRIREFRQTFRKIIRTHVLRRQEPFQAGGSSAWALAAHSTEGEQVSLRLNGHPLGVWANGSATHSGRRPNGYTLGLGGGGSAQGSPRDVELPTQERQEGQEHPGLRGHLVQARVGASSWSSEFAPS

pKi: 5.70
SMILES: OC[C@H]1O[C@@H](n2cnc3c(NC4CCCC4)ncnc32)[C@H](O)[C@@H]1O
